From ChEMBL document CHEMBL1201862, “PubChem BioAssay data set” (2004)
Active and inactive are the calls of the source.

Key:
[1] = target: Polyadenylate-binding protein 1 (Homo sapiens, UniProt P11940); test: blockers of PABP interaction with poly(A) – biochemical, fluorescence polarization, […] (AID 2014)
[2] = target: Eukaryotic translation initiation factor 4H (Homo sapiens, UniProt Q15056); test: eIF4H binding inhibition – biochemical, uHTS, fluorescence polarization, translation initiation inhibitor project, primary screen (AID 2012)
Estrogen receptor = target: T1, Estrogen receptor (Homo sapiens, UniProt P03372);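 note: potency for inhibiting coactivator peptide recruitment to the receptor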
T1 sequence (P03372 whole entry): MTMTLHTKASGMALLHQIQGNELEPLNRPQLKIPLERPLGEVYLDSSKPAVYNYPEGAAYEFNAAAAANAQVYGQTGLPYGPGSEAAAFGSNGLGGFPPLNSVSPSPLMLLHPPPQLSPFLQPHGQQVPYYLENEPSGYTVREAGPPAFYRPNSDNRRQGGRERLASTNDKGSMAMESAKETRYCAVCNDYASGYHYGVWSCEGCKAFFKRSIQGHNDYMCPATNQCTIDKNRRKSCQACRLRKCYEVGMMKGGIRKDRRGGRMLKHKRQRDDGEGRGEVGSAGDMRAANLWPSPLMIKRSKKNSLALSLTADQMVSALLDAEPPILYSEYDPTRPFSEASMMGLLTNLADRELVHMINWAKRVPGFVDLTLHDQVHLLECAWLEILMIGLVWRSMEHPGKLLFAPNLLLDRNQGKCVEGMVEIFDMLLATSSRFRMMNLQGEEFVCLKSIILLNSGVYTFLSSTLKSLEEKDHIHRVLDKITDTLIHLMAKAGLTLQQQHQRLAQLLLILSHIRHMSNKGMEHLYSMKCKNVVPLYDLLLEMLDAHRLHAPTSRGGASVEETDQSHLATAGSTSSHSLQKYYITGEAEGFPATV

Estrogen receptor beta = Estrogen receptor beta (Homo sapiens, UniProt Q92731);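 note: recombinant ER-beta bound to coactivator SRC1 peptide in presence of estradiol agonist; inhibitors block coactivator peptide binding and lower the FRET signal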
[3] = target: T2, Lytic switch protein BZLF1 (Epstein-Barr virus (strain B95-8) (HHV-4) (Human herpesvirus 4), UniProt P03206); test: inhibition of BZLF1 ZTA DNA binding – biochemical, fluorescence polarization, Epstein-Barr virus, 1536-well, counter-screen for EBNA-1 inhibitor project, dose response (AID 2377); parameters: species or system human gammaherpesvirus 4;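 note: fluorescence polarization of Cy5-labelled ZRE DNA probe bound by purified Zta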
T2 sequence (P03206 whole entry): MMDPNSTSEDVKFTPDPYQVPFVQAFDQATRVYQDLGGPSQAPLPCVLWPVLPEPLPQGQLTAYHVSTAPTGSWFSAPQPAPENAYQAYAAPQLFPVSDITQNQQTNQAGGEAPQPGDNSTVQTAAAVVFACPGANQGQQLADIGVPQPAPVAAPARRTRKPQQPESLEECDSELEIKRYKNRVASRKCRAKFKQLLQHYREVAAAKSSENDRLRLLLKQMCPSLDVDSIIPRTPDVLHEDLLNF

[4] = target: T3, Epstein-Barr nuclear antigen 1 (Epstein-Barr virus (strain B95-8) (HHV-4) (Human herpesvirus 4), UniProt P03211); test: inhibition of EBV nuclear antigen 1 DNA binding – biochemical, fluorescence polarization, 1536-well, dose response (AID 2381); parameters: species or system human gammaherpesvirus 4;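 note: fluorescence polarization of a Cy5 DNA probe bound by EBNA-1 protein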
T3 sequence (P03211 whole entry): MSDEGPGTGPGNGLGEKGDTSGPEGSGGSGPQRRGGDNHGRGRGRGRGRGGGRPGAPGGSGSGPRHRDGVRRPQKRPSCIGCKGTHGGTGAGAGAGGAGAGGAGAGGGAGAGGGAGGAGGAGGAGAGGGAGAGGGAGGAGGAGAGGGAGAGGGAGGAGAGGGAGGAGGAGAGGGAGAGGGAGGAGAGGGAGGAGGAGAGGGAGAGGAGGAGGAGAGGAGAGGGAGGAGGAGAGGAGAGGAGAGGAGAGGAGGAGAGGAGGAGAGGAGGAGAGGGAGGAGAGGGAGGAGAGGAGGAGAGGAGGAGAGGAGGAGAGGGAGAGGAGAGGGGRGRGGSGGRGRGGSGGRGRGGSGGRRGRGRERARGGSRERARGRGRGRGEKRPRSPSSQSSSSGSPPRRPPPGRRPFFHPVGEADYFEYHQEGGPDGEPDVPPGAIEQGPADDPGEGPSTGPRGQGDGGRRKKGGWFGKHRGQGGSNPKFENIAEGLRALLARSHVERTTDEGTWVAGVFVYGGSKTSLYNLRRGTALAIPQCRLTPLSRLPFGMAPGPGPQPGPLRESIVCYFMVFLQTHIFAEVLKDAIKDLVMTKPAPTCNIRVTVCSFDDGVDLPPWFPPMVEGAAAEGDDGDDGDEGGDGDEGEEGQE

[5] = target: Melanin-concentrating hormone receptor 1 (Homo sapiens, UniProt Q99705); test: Late-stage fluorescence-based counterscreen for antagonists of the G-protein coupled receptor 7 (GPR7): cell-based dose response assay to identify antagonists of the melanin-concentrating hormone receptor 1 (MCHR1). [Related pubchem assays (depositor defined):AID1861, AID1880, AID1952, AID2148, AID2251, AID2257, AID485339]; type: functional;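 note: stimulated with 30 nM MCH peptide agonist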
Vero = test: mammalian cell viability reduction – secondary assay, cytotoxicity control for West Nile virus antiviral project, dose response (AID 1650); type: functional; details: Chlorocebus sabaeus
[6] = target: T4, Ubiquitin-conjugating enzyme E2 N (Homo sapiens, UniProt P61088); type: functional;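 note: Dose-response confirmation in a TR-FRET assay detecting UBC13-driven polyubiquitin chain formation, inhibition measured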
T4 sequence (P61088 whole entry): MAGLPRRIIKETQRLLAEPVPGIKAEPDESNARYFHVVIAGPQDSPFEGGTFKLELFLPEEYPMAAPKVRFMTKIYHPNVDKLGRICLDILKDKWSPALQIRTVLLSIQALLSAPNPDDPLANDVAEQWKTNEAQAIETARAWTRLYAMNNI

Sequence of Polyadenylate-binding protein 1 (P11940 whole entry): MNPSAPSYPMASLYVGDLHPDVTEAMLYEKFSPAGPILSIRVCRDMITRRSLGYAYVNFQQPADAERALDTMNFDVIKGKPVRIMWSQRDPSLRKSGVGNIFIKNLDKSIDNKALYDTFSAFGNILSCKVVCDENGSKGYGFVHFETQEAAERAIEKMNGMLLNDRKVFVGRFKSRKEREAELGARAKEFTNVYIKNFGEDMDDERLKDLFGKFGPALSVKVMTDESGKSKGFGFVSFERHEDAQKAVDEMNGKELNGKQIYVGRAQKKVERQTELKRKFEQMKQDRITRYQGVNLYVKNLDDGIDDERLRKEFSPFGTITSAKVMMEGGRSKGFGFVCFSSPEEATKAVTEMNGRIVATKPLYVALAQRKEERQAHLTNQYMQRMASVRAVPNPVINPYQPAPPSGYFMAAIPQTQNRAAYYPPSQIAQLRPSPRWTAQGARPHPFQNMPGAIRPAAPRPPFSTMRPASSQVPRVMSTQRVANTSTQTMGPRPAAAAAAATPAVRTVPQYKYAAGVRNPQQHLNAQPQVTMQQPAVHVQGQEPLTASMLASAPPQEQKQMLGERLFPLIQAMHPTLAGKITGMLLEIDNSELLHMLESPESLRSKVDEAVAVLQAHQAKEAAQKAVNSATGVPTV
Sequence of Melanin-concentrating hormone receptor 1 (Q99705 whole entry): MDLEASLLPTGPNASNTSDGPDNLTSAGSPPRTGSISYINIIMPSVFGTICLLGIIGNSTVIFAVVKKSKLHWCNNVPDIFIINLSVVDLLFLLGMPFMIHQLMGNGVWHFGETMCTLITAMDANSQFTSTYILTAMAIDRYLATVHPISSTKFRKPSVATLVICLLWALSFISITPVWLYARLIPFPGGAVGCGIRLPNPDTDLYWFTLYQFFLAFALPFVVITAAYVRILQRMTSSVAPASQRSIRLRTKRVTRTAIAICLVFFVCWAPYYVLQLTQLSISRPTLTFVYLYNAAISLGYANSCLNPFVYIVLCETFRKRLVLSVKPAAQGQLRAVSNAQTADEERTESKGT
Sequence of Estrogen receptor beta (Q92731 whole entry): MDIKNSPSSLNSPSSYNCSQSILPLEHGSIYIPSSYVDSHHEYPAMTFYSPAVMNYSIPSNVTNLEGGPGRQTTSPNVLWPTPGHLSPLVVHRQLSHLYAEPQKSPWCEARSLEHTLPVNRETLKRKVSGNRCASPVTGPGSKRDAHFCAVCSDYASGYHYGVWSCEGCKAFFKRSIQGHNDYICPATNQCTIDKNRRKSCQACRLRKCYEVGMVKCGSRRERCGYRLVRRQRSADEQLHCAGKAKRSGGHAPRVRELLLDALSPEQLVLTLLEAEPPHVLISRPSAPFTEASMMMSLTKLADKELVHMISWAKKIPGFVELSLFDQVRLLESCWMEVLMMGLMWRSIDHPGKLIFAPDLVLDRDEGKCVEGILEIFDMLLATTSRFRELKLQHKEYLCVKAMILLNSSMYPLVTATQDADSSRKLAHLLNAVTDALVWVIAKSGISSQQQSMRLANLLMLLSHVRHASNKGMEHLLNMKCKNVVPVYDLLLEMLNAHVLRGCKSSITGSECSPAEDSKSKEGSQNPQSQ

Compound: Cc1ccc(C(=O)OCC(=O)NC2CCCCC2)o1
- IC50 [1]: 63 µM (active)
- IC50 [2]: 51 µM (active)

Compound: CCN=c1ccc(Br)cc(C(=O)/C=C/c2ccccc2Cl)c1O
- IC50 (Estrogen receptor): 3.11 µM (active)

Compound: O=C(CCS(=O)(=O)c1ccc(Br)cc1)N1CCN(c2ccc(F)cc2)CC1
- IC50 [1]: > 100 µM (inactive)
- IC50 [2]: 24.2 µM (active)

Compound: Cn1c(=O)[nH]c(=O)c2c1nc1n2CCCN1CCc1ccccc1
- IC50 (Estrogen receptor beta): > 50 µM (not active)
- IC50 (Estrogen receptor): > 50 µM (not active)

Compound: COc1ccc(Cl)cc1NC(=O)CN1CCN(S(=O)(=O)c2ccc(F)cc2)CC1
- IC50 [3]: > 111 µM (not active)
- IC50 [4]: 16.4 µM (not active)

Compound: CC(C)c1ccc(-n2ncc(Cl)c(Oc3ccc(OC(F)(F)F)cc3)c2=O)cc1
- IC50 [5]: 12 µM (inactive)

Compound: CN(CC(=O)NC(=O)NCc1ccco1)CC(=O)Nc1ccccc1Cl
- IC50 [1]: 60.8 µM (active)
- IC50 [2]: 20.5 µM (active)

Compound: CC1CC(C)CN(CCCNC(=O)C2CCN(c3ncnc4c3sc3cccc(F)c34)CC2)C1 (stereo unspecified)
- CC50 (Vero): > 100 µM (active)
- IC50 [6]: > 20 µM (inactive)

Compound: C/C(=N\NC(=O)c1c(Br)cnn1C)c1ccc(NC(=O)c2ccc(F)cc2)cc1
- IC50 [3]: > 111 µM (not active)
- IC50 [4]: 3.62 µM (active)
